In brackets after ≈: the same amount, converted by molar mass.
Experiments:
[1] = tested on: Mycobacterium tuberculosis; test: Antimicrobial activity against rifampicin-resistant and INH-resistant Mycobacterium tuberculosis 2643 by agar dilution method and BACTEC radiometric method; type: functional
[2] = tested on: Mycobacterium tuberculosis; test: Antimicrobial activity against rifampicin-resistant and INH-resistant Mycobacterium tuberculosis 1678/05 by agar dilution method and BACTEC radiometric method; type: functional

Structure (SMILES)	MIC [1] [µg/mL]	MIC [2] [µg/mL]
COc1cc(OCCN(C(C)C)C(C)C)c2c(c1)C(C)(C)[C@H](c1ccccc1)[C@H]2c1ccccc1 (relative stereo)	6.25 (≈ 13.3 µM)	6.25 (≈ 13.3 µM)
COc1cc(OCCN2CCCCCC2)c2c(c1)C(C)(C)[C@H](c1ccccc1)[C@H]2c1c(OC)ccc2ccccc12 (relative stereo)	3.12 (≈ 5.68 µM)	3.12 (≈ 5.68 µM)

Source: ChEMBL document CHEMBL2346660, “Synthesis and biological evaluation of trans 6-methoxy-1,1-dimethyl-2-phenyl-3-aryl-2,3-dihydro-1H-inden-4-yloxyalkylamine derivatives against drug susceptible, non-replicating M. tuberculosis H37Rv and clinical multidrug resistant strains” (Bioorg Med Chem Lett, 2013)
